Experimental data as given in US7339080B2, “Method for the production of diaminoxylene by continuous hydrogenation of liquid phthalonitrile” (BASF Aktiengesellschaft, priority 2003, dated 2008).

Experiment: solubility of IPN in process solvents (MXDA, liquid ammonia)
Assay type: physicochemical

In the case of `N#Cc1cccc(C#N)c1` [IPN, 1,3-dicyanobenzene], the “solubility of IPN in MXDA” value (in MXDA at 70° C.) was “approx. 20 % by weight” and the “solubility of IPN in NH3” value (in liquid ammonia (NH3) at 40° C.) was “approx. 45 % by weight”.
